The subject of data set [1] is BNL CL2 (mouse normal hepatic cells). As to the kind of experiment: Cell proliferation (MTT) assay, BNL CL2. The format is cell-based. The protocol:
All 10 human cancer cell lines were maintained at 37 °C in 5% CO2 in RPMI-1640 medium, supplemented with 10% foetal calf serum and 100 μg/ml normocin. The 10 cancer cell lines used for screening were all obtained from ATCC (Manassas, VA, USA); they were the NSCLC (a form of cancer that is resistant to chemotherapy) lines: NCI-H460 (pRb^+, p53^+), A549 (pRb^+, p53^+), Calu-1 (pRb^+, p53-null), NCI-H1299 (pRb^+, p53-null), NCI-H358 (pRb-null, p53-null); the colon cancer line LS174T (pRb^+, p53^+); the prostate cancer line PC-3 (pRb^+, p53-null); the pancreatic cancer line MiaPaca (pRb^+, p53-mutant). The genotypes within brackets indicate the status of the tumour suppressor proteins pRb and p53. The mouse embryonic normal hepatic cell line (BNL CL2) and its SV40 large T-antigen-transformed counterpart cell line (BNL SV A.8) were also purchased from ATCC. The large T-antigen inactivates the tumour suppressor proteins p53 and pRb. The detailed procedure of cell proliferation (MTT) assay and IC50 determination was described previously.[32]

In data set [2] the target is Cdk4-cyclin D1 (Homo sapiens, UniProt P11802). As to the kind of experiment: In vitro kinase assay, Cdk4-cyclin D1 (in-house). The format is biochemical. Here is the method: (§1) The in vitro kinase assays for testing against Cdk4-cyclin D1, Cdk2-cyclin A, Cdk1-cyclin B1 and Cdk9-cyclin T1 were performed in-house. The methodology and results have been reported previously.[20], [30], [31], [32], [45] The kinase profiling for 58 representative kinases was carrried out commercially at Millipore Bioscience Division, Livingston, UK.
Cdk4-cyclin D1, sequence (P11802 whole entry): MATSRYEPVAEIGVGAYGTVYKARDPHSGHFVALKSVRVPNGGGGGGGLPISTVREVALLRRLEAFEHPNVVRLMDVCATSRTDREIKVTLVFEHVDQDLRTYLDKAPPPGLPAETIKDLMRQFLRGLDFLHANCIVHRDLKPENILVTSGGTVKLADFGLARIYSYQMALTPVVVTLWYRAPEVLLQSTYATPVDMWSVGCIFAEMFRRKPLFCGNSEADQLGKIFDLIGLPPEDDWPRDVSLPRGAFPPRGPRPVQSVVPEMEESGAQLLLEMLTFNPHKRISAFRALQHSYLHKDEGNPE
Cdk4-cyclin D1, sequence (P24385 whole entry partner): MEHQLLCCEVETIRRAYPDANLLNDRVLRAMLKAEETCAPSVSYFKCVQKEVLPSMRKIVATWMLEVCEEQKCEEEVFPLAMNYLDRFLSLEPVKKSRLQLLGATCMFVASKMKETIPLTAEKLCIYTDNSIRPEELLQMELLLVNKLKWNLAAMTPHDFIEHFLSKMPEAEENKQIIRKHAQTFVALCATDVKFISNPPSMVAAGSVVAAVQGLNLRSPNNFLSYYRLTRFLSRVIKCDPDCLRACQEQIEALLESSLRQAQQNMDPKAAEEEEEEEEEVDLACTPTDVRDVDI

The target in data set [3] is PKA (Homo sapiens, UniProt P17612). As to the kind of experiment: Kinase profiling (Millipore), PKA. In kind it is biochemical. Here is the method:
as §1

Data set [4] addresses PKCα (Homo sapiens, UniProt P17252). As to the kind of experiment: Kinase profiling (Millipore), PKCα. The format is biochemical. Here is the method:
as §1

Data set [5] concerns NCI-H460 tumours. As to the kind of experiment: NCI-H460 xenograft efficacy in SCID mice. The following applies: 100 mpk intraperitoneal, 9 days. The format is in vivo. The protocol: A group of 65 SCID (SCID strain-CBySmn.CB17-Prkdc^scid/J; The Jackson Laboratory; Stock no. 001803) female mice weighing 15–24 g and 6–8 weeks old were used. Human non-small-cell lung carcinoma, NCI-H460 (ATCC; cat. no. HTB-177) cells grown in RPMI-1640 medium supplemented with 10% FBS (Sigma-Aldrich). The cultured cells were injected subcutaneously into the dorsal side of SCID mice at a tune of 5.3 × 10^6 cells in 0.2 ml of suspension. When the tumour growth reached about 4–6 mm in diameter (about 6 days), the animals were randomly divided into eight groups, each containing 6 or 7 mice. The treatments were continued for 9 consecutive days intraperitoneally. Flavopiridol (2.5 mpk) was used as a positive control in this study. Tumour size was recorded at 2–5 day intervals. Tumour weight (mg) was estimated according to the formula for a prolate ellipsoid: (length (mm) × width (mm)^2) × 0.5) assuming specific gravity to be one and π to be 3. Tumour growth in compound treated animals is calculated as T/C (treated/control) × 100% and growth inhibition percent (% GI) was (100−% T/C).[48], [49], [50]

In data set [6] the target is Cdk6-cyclin D1 (Homo sapiens, UniProt Q00534). As to the kind of experiment: Kinase profiling (Millipore), Cdk6-cyclin D1. In kind it is biochemical. Here is the method:
as §1

A short description of data set [7]: Pharmacokinetics in BALB/c mice. The format is in vivo. Here is the method: Oral and intravenous pharmacokinetic studies of BPT were carried out in BALB/c male mice of age 4–6 weeks, by administering BPT orally and intravenous formulation at dose of 10 mg/kg for oral and 1 mg/kg for intravenous. Plasma samples were collected at appropriate time points between the range 0 and 24 h, and analysed by LC-MS-MS. Mean plasma concentration calculated and data were further analysed to determine PK parameters such as t1/2, Cmax, ACU, Vd and CL, using WinNonlin 5.3 software package (Pharsight Company, Princeton, NJ, USA).

The mark [8] stands for this setting: BNL CL2, concentration used in long-term survival assay (Fig. S3).
The mark [9] stands for this setting: male, mouse, plasma, 1.0 mg/kg intravenous.

Where two headings read alike, the source gives them in different places. Some results are limits rather than exact numbers.

Cdk6-cyclin D1, sequence (P24385 whole entry): as the sequence (P24385 whole entry partner) above
Cdk6-cyclin D1, sequence (Q00534 whole entry): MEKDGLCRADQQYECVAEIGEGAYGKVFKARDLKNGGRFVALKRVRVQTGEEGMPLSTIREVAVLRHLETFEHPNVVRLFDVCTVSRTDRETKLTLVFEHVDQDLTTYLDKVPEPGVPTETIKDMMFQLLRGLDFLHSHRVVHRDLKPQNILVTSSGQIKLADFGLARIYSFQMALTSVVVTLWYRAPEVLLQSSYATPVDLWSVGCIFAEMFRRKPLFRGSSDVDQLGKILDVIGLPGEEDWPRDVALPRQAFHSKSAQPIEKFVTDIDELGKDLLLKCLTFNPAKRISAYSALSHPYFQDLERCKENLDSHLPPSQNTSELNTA

For `O=C(c1ccccc1-c1ccccc1)N1CCc2c([nH]c3ccccc23)C1` [BPT, 2-(biphenyl-2-carbonyl)-2,3,4,9-tetrahydro-1H-pyrido[3,4-b]indole], in data set [1] (setting [8]), the 30% effect concentration (IC30) – broadly, the concentration needed for an effect of 30% – is 400 nM and the 70% effect concentration (IC70) (in general, the concentration needed for an effect of 70%) was 900 nM. Also, the IC50 (commonly the midpoint of a concentration-inhibition curve) in data set [1] (Mus musculus, BNL CL.2, 48 h, MTT, read-out: IC50 cell growth inhibition, BNL CL2) stood at 720 nM. Moreover, in data set [1] (Mus musculus, BNL CL.2, BNL CL2, concentration used in long-term survival assay (Fig. S3)), the IC20 (as a rule, the concentration needed for an effect of 20%) stood at 250 nM. For the same molecule, the IC50 in data set [1] (Mus musculus, BNL CL.2, BNL CL2, concentration used in long-term survival assay (Fig. S3), read-out: IC50) is 600 nM. The “selectivity for Cdk4-cyclin D1 with respect to Cdk2-cyclin A” value in data set [2] is listed as 83 fold. In addition, the 50% inhibitory concentration (IC50) in data set [2] (three independent experiments, read-out: IC50 (mean±S.D.), Cdk4-cyclin D1) was found to be 10000 ± 1200 nM. The molecule also returned a concentration for half-maximal inhibition (IC50) in data set [3] above 10000 nM. The same molecule came in with a half-inhibitory concentration (IC50) in data set [4] above 10000 nM. Moreover, the antitumour efficacy result in data set [5] is “high efficacy”. In addition, the IC50 in data set [6] was above 10000 nM. In data set [7], the oral bioavailability entry was “poor” and the “plasma exposure after intravenous administration” value is on record as “good plasma exposure”. In data set [7] (1.0 mg/kg intravenous), this molecule returned a CL of 95.8 ml/min per kg. In data set [7] (setting [9]), the total exposure AUC(0-inf) (in general, the area under the concentration-time curve extrapolated to infinity) was determined as 174 ng·h/mL; the area under the curve AUC(0-t) (in general, the area under the concentration-time curve up to a stated or last time point) was determined as 170 ng·h/mL; the C0 came out at 888 ng/mL; the highest level (Cmax) was 413 ng/mL. In data set [7] (setting [9]), the volume of distribution (Vd) – broadly, a proportionality between amount in the body and measured concentration, not a real space – was determined as 1.56 L/kg; the half-life – broadly, the time needed for the level to fall by half in the phase considered – is 11.4 min. The molecule further came in with an AUC(0-t) in data set [7] (male, mouse, plasma, oral, 10 mg/kg per os) of 17.7 ng·h/mL.
